From the NIST ThermoML archive (doi:10.1016/j.jct.2015.05.014) come the findings set out here.

± gives the expanded uncertainty stated by the source.

This data set in a line: activity coefficient (dimensionless); of the first substance listed, at infinite dilution; xn = mol fraction of the nth substance listed. As to conditions: 100 kPa, Liquid, Chromatography, x1 = 0.

Turning to `Cc1ccccc1C` [1,2-dimethylbenzene] + CC(O)C(=O)[O-].CC[N+]1(C)CCCC1, the activity coefficient turned out to be 8.23 ± 0.71 (318.15 K); 8.33 ± 0.72 (328.15 K); 8.46 ± 0.73 (338.15 K); 8.57 ± 0.74 (348.15 K); 8.69 ± 0.75 (358.15 K); 8.9 ± 0.8 (368.15 K).
`Cc1cccc(C)c1` [1,3-dimethylbenzene] + CC(O)C(=O)[O-].CC[N+]1(C)CCCC1: the activity coefficient came to 10.1 ± 0.9 (318.15 K); 10.2 ± 0.9 (328.15 K); 10.4 ± 0.9 (338.15 K); 10.4 ± 0.9 (348.15 K); 10.5 ± 0.9 (358.15 K); 10.7 ± 0.9 (368.15 K).
In the case of `Cc1ccc(C)cc1` [1,4-dimethylbenzene] + CC(O)C(=O)[O-].CC[N+]1(C)CCCC1, the activity coefficient is, setting by setting: (318.15 K) 10 ± 0.9; (328.15 K) 10.1 ± 0.9; (338.15 K) 10.3 ± 0.9; (348.15 K) 10.4 ± 0.9; (358.15 K) 10.5 ± 0.9; (368.15 K) 10.7 ± 0.9.
For the molecule `C1COCCO1` [1,4-dioxane] + CC(O)C(=O)[O-].CC[N+]1(C)CCCC1, the activity coefficient came to 2.25 ± 0.19 (318.15 K); 2.33 ± 0.2 (328.15 K); 2.4 ± 0.21 (338.15 K); 2.48 ± 0.21 (348.15 K); 2.55 ± 0.22 (358.15 K); 2.65 ± 0.23 (368.15 K).
As for `C=CCCCCCCCC` [1-decene] + CC(O)C(=O)[O-].CC[N+]1(C)CCCC1, the activity coefficient is, setting by setting: (308.15 K) 349 ± 30; (318.15 K) 326 ± 28; (328.15 K) 302 ± 26; (338.15 K) 284 ± 25; (348.15 K) 268 ± 23; (358.15 K) 252 ± 22. Besides, the activity coefficient (368.15 K) came to 238 ± 21.
For the molecule `C=CCCCCC` [1-heptene] + CC(O)C(=O)[O-].CC[N+]1(C)CCCC1, the activity coefficient is 88.8 ± 7.7 (308.15 K); 83.8 ± 7.3 (318.15 K); 78.7 ± 6.8 (328.15 K); 75.2 ± 6.5 (338.15 K); 71.9 ± 6.2 (348.15 K); 68.8 ± 6 (358.15 K). The activity coefficient (368.15 K) worked out at 66.4 ± 5.7.
Regarding `C#CCCCCC` [1-heptyne] + CC(O)C(=O)[O-].CC[N+]1(C)CCCC1, the activity coefficient reads like this: (308.15 K) 8.33 ± 0.72; (318.15 K) 8.83 ± 0.76; (328.15 K) 9.25 ± 0.8; (338.15 K) 9.82 ± 0.85; (348.15 K) 10.3 ± 0.9; (358.15 K) 10.7 ± 0.9. Besides, under “368.15 K”, the activity coefficient turned out to be 11.2 ± 1.
With `C#CCCCC` [1-hexyne] + CC(O)C(=O)[O-].CC[N+]1(C)CCCC1, the activity coefficient reads like this: (308.15 K) 5.14 ± 0.44; (318.15 K) 5.48 ± 0.47; (328.15 K) 5.79 ± 0.5; (338.15 K) 6.21 ± 0.54; (348.15 K) 6.54 ± 0.56; (358.15 K) 6.92 ± 0.6. Under “368.15 K”, the activity coefficient came to 7.24 ± 0.62.
With `CCC[N+](=O)[O-]` [1-nitropropane] + CC(O)C(=O)[O-].CC[N+]1(C)CCCC1, the activity coefficient reads like this: (318.15 K) 1.75 ± 0.15; (328.15 K) 1.8 ± 0.15; (338.15 K) 1.86 ± 0.16; (348.15 K) 1.92 ± 0.16; (358.15 K) 1.98 ± 0.17; (368.15 K) 2.06 ± 0.18.
For the molecule `C#CCCCCCC` [1-octyne] + CC(O)C(=O)[O-].CC[N+]1(C)CCCC1, the activity coefficient was 13.6 ± 1.2 (308.15 K); 14.2 ± 1.2 (318.15 K); 14.7 ± 1.3 (328.15 K); 15.5 ± 1.3 (338.15 K); 16 ± 1.4 (348.15 K); 16.6 ± 1.4 (358.15 K). Moreover, the activity coefficient (368.15 K) was 17.1 ± 1.5.
With `C#CCCC` [1-pentyne] + CC(O)C(=O)[O-].CC[N+]1(C)CCCC1, the activity coefficient came out at 3.18 ± 0.27 (308.15 K); 3.43 ± 0.3 (318.15 K); 3.66 ± 0.32 (328.15 K); 3.95 ± 0.34 (338.15 K); 4.2 ± 0.4 (348.15 K); 4.46 ± 0.38 (358.15 K). Further, the activity coefficient (368.15 K) worked out at 4.69 ± 0.4.
Consider `CC(C)CC(C)(C)C` [2,2,4-trimethylpentane] + CC(O)C(=O)[O-].CC[N+]1(C)CCCC1, for which the activity coefficient reads like this: (308.15 K) 270 ± 23; (318.15 K) 242 ± 21; (328.15 K) 220 ± 19; (338.15 K) 201 ± 17; (348.15 K) 187 ± 16; (358.15 K) 173 ± 15. For the same molecule, the activity coefficient (368.15 K) was 161 ± 14.
For the molecule `CCOC(C)(C)C` [2-ethoxy-2-methylpropane] + CC(O)C(=O)[O-].CC[N+]1(C)CCCC1, the activity coefficient was found to be 46.2 ± 4 (308.15 K); 45.2 ± 3.9 (318.15 K); 43.9 ± 3.8 (328.15 K); 42.5 ± 3.7 (338.15 K); 41.6 ± 3.6 (348.15 K); 40.7 ± 3.5 (358.15 K). For the setting “368.15 K”, the activity coefficient stood at 39.7 ± 3.4.
With `CCCCC(C)=O` [2-hexanone] + CC(O)C(=O)[O-].CC[N+]1(C)CCCC1, the activity coefficient reads like this: (318.15 K) 7.09 ± 0.61; (328.15 K) 7.16 ± 0.62; (338.15 K) 7.22 ± 0.62; (348.15 K) 7.31 ± 0.63; (358.15 K) 7.39 ± 0.64; (368.15 K) 7.54 ± 0.65.
As to `CCC(C)(C)OC` [2-methoxy-2-methylbutane] + CC(O)C(=O)[O-].CC[N+]1(C)CCCC1, the activity coefficient is 27.9 ± 2.4 (308.15 K); 27.8 ± 2.4 (318.15 K); 27.3 ± 2.4 (328.15 K); 26.8 ± 2.3 (338.15 K); 26.3 ± 2.3 (348.15 K); 26.1 ± 2.3 (358.15 K). In addition, the activity coefficient (368.15 K) stood at 25.8 ± 2.2.
With `COC(C)(C)C` [2-methoxy-2-methylpropane] + CC(O)C(=O)[O-].CC[N+]1(C)CCCC1, the activity coefficient was determined as 18.1 ± 1.6 (308.15 K); 18 ± 1.6 (318.15 K); 17.9 ± 1.5 (328.15 K); 17.9 ± 1.5 (338.15 K); 17.8 ± 1.5 (348.15 K); 17.7 ± 1.5 (358.15 K). The activity coefficient (368.15 K) was determined as 17.7 ± 1.5.
For the molecule `CCCC(=O)CC` [3-hexanone] + CC(O)C(=O)[O-].CC[N+]1(C)CCCC1, the activity coefficient (318.15 K) worked out at 8.06 ± 0.7; the activity coefficient (328.15 K) came to 8.06 ± 0.7; the activity coefficient (338.15 K) was 8.12 ± 0.7; the activity coefficient (348.15 K) came to 8.19 ± 0.71; the activity coefficient (358.15 K) came to 8.25 ± 0.71; the activity coefficient (368.15 K) was 8.4 ± 0.73.
As to `CCC(C)CC` [3-methylpentane] + CC(O)C(=O)[O-].CC[N+]1(C)CCCC1, the activity coefficient (308.15 K) worked out at 122 ± 11; the activity coefficient (318.15 K) amounted to 111 ± 10; the activity coefficient (328.15 K) is 102 ± 9; the activity coefficient (338.15 K) worked out at 94.5 ± 8.2; the activity coefficient (348.15 K) was determined as 88.7 ± 7.7; the activity coefficient (358.15 K) came to 83.5 ± 7.2. Also, the activity coefficient (368.15 K) came out at 78.4 ± 6.8.
As for `CC(C)=O` [acetone] + CC(O)C(=O)[O-].CC[N+]1(C)CCCC1, the activity coefficient (318.15 K) stood at 1.93 ± 0.17; the activity coefficient (328.15 K) is 1.97 ± 0.17; the activity coefficient (338.15 K) turned out to be 2.03 ± 0.18; the activity coefficient (348.15 K) was 2.08 ± 0.18; the activity coefficient (358.15 K) turned out to be 2.14 ± 0.18; the activity coefficient (368.15 K) came to 2.21 ± 0.19.
